Earlier results on one molecule are cited in patent US6077513A, “Drug for treatment of bilharziasis (Schistosomiasis)” (priority 1997, dated 2000).

In data set [1] the test system is isolated guinea pig ileum.
The test system of data set [2] is Staphylococcus aureus.

As to `CC1=C[C@@H]2[C@@H](CC1)[C@@](C)(O)CC[C@H]2C(C)C` [T-Cadinol], the “smooth muscle relaxing effect” value in data set [1] is given as “concentration - dependent smooth muscle relaxing effect”. The antibacterial effect entry in data set [2] was “bacterial lysis and subsequent fatal loss of intracellular components”.
